Results taken from US12502385B2, “Analogs of deutetrabenazine, their preparation and use” (Auspex Pharmaceuticals, Inc., priority 2017, dated 2025).
Where “and” joins values, the source holds several entries; their conditions need not be identical. Identical values can stand only once.

How the values were obtained:
[1] = 90-day GLP general rat toxicology study
Protocol: A 90-day GLP general rat toxicology study was conducted with Compound 1.

[2] = test system: mice; conditions: mouse, in vivo
Protocol: A 3-day GLP mouse micronucleus study was conducted with Compound 1. That study included a GLP Bacterial Reverse Mutation Assay of deutetrabenazine with Compound 1. That study also included an in vitro Chromosome Aberration Test in Cultured Human Peripheral Blood Lymphocytes. In the study, the highest level of 80 mg/kg/day of deutetrabenazine was not genotoxic in males and females. That dose level was predicted to provide 2.77 mg Compound 1/kg/day in mice, which approximates to a human equivalent dose of 0.23 mg/kg.

| SMILES | NOAEL at 90 day ([1]; in vivo) | Compound 1 dose provided at the non-genotoxic deutetrabenazine level ([2]; both, 3 day) | human equivalent dose of Compound 1 at the non-genotoxic level ([2]; both, 3 day) | NOAEL at 90 day ([1]; rat) | genotoxicity ([2]; 80 mg/kg/day) |
| --- | --- | --- | --- | --- | --- |
| [2H]C([2H])([2H])Oc1cc2c(cc1OC([2H])([2H])[2H])[C@@H]1CC(=O)[C@H](CC(C)C)CN1CC2 (racemic) [Compound 1, (RS, SR)-1,3,4,6,7,11b-hexahydro-9,10-di(methoxy-d3)-3-(2-methylpropyl)-2H-benzo[a]quinolizin-2-one] | 0.346 mg/kg/day and ~0.056 mg/kg | 2.77 mg/kg/day | ~0.23 mg/kg | – | – |
| [2H]C([2H])([2H])Oc1cc2c(cc1OC([2H])([2H])[2H])C1CC(=O)C(CC(C)C)CN1CC2 (centres unmarked) [deutetrabenazine, d6-Tetrabenazine] | – | – | – | 10 mg/kg/day | not genotoxic |
